Counter-ions that a name gives are not always drawn.
Key:
[1] = molecular target: T1, Adrenergic β2 (H292 cells) (Homo sapiens, UniProt P07550); assay: Assay for Adrenergic β2 Mediated cAMP Production (concentration response, AlphaScreen cAMP detection); format: cell-based; conditions: for EC50: cAMP production, 60 minutes at room temperature, 300 μM rolipram, read-out: β2 pEC50 (converted); for β2 Intrinsic activity: fraction relative to the maximum activity determined for formoterol
T1 construct: endogenous in cells; host or cells: H292 cells
In short: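 Intrinsic activity is relative to the per-experiment formoterol maximum, with pEC50 from a four-parameter logistic fit of cAMP levels quantified by AlphaScreen against standards. Cells (H292) got 300 μM rolipram for 10 min, then compound for 60 min at room temperature, 1% DMSO final.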

[2] = molecular target: T2, human muscarinic acetylcholine M3 receptor (M3-ACh) (Homo sapiens, UniProt P20309); assay: Muscarinic 3 Receptor Binding Assay ([3H]NMS competition, SPA); conditions: [3H]NMS 0.1 nM, CHO-K1 cell membranes, 16 hours at room temperature; read-out: M3 pIC50 (converted)
T2 construct: expressed in transfected cells; host or cells: CHO-K1 (Chinese Hamster Ovary) cell membranes
In short: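 Competition SPA binding of 0.1 nM [3H]NMS (quarter Kd) to membranes from CHO-K1 cells expressing human M3, in 20 mM HEPES pH 7.4, 5 mM MgCl2, 1% DMSO. Incubated 16 h at room temperature; non-specific binding with 1 µM atropine. pIC50 from 50% reduction of specific binding.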

T2 sequence (P20309 whole entry): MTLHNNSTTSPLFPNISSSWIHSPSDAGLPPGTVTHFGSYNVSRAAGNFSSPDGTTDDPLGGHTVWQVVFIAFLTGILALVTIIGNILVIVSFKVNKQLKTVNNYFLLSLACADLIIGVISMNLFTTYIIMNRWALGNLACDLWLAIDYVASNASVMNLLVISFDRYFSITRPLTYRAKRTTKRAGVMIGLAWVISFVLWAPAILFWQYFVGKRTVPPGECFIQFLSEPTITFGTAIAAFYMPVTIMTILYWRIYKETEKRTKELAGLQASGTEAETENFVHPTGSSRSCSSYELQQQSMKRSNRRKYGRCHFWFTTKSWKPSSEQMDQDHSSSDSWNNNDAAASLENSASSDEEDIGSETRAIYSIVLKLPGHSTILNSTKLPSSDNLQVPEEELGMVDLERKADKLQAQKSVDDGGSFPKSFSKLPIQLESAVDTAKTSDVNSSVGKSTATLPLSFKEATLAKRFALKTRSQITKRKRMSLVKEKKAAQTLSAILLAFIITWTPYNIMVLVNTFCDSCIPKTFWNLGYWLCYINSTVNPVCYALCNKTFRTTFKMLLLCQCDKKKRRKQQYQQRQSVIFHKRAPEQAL
T1 sequence (P07550 whole entry): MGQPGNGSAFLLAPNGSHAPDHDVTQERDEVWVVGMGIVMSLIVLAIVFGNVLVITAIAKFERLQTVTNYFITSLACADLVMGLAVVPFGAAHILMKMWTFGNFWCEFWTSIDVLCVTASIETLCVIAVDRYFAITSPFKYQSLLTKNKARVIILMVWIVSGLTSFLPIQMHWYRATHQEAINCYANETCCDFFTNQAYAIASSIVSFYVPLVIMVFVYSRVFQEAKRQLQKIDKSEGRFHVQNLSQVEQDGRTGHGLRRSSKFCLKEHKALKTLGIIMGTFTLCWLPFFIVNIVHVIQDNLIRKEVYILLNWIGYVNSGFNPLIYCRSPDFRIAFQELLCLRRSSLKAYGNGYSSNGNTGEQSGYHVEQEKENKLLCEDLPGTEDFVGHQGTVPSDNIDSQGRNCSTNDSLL

EC50 [1] [nM] | β2 Intrinsic activity [1] | IC50 [2] [nM] | Compound
25.1 | 1.0 | 2.51 | CCC(CC)c1nc(C(=O)N2CCOC3(CCN(Cc4cccc(CCNC[C@H](O)c5ccc(O)c6[nH]c(=O)ccc56)c4)CC3)C2)cs1 [Example 274, (R)-8-Hydroxy-5-(1-hydroxy-2-(3-((4-(2-(pentan-3-yl)thiazole-4-carbonyl)-1-oxa-4,9-diazaspiro[5.5]undecan-9-yl)methyl)phenethylamino)ethyl)quinolin-2(1H)-one ditrifluoroacetate]
50.1 | 1 | 1.58 | CC(C)c1cc(C(=O)N2CCOC3(CCN(Cc4cccc(CC(C)(C)NC[C@H](O)c5ccc(O)c6[nH]c(=O)ccc56)c4)CC3)C2)cs1 [Example 275, (R)-8-Hydroxy-5-(1-hydroxy-2-(1-(3-((4-(5-isopropylthiophene-3-carbonyl)-1-oxa-4,9-diazaspiro[5.5]undecan-9-yl)methyl)phenyl)-2-methylpropan-2-ylamino)ethyl)quinolin-2(1H)-one ditrifluoroacetate]
39.8 | 1 | 2 | CC(C)c1cc(C(=O)N2CCOC3(CCN(Cc4cccc(C[C@@H](C)NC[C@H](O)c5ccc(O)c6[nH]c(=O)ccc56)c4)CC3)C2)cs1 [Example 276, 8-Hydroxy-5-((R)-1-hydroxy-2-((R)-1-(3-((4-(5-isopropylthiophene-3-carbonyl)-1-oxa-4,9-diazaspiro[5.5]undecan-9-yl)methyl)phenyl)propan-2-ylamino)ethyl)quinolin-2(1H)-one ditrifluoroacetate]
31.6 | 0.9 | 0.1 | Cc1nc(C(=O)N2CCOC3(CCN(Cc4cccc(CCOCCC(=O)N(CCNC[C@H](O)c5ccc(O)c6[nH]c(=O)sc56)C5CCCCC5)c4)CC3)C2)cs1 [Example 277, (R)—N-Cyclohexyl-N-(2-(2-hydroxy-2-(4-hydroxy-2-oxo-2,3-dihydrobenzo[d]thiazol-7-yl)ethylamino)ethyl)-3-(3-((4-(2-methylthiazole-4-carbonyl)-1-oxa-4,9-diazaspiro[5.5]undecan-9-yl)methyl)phenylethoxy)propanamide ditrifluoroacetate]
3.98 | 1.0 | 0.398 | CC(C)c1nc(C(=O)N2CCOC3(CCN(Cc4csc(CCNC[C@H](O)c5ccc(O)c6[nH]c(=O)sc56)c4)CC3)C2)cs1 [Example 278, (R)-4-hydroxy-7-(1-hydroxy-2-(2-(4-((4-(2-isopropylthiazole-4-carbonyl)-1-oxa-4,9-diazaspiro[5.5]undecan-9-yl)methyl)thiophen-2-yl)ethylamino)ethyl)benzo[d]thiazol-2(3H)-one ditrifluoroacetate]
316 | 0.9 | 7.94 | CC(C)c1nc(C(=O)N2CCOC3(CCN(CCCCCCC(C)(C)CCNC[C@H](O)c4ccc(O)c5[nH]c(=O)sc45)CC3)C2)cs1 [Example 279, (R)-4-Hydroxy-7-(1-hydroxy-2-(9-(4-(2-isopropylthiazole-4-carbonyl)-1-oxa-4,9-diazaspiro[5.5]undecan-9-yl)-3,3-dimethylnonylamino)ethyl)benzo[d]thiazol-2(3H)-one formate]
5.01 | 1.2 | 0.794 | CC(CCCCCCCCN1CCC2(CC1)CN(C(=O)c1csc(C(C)C)n1)CCO2)NC[C@H](O)c1ccc(O)c2[nH]c(=O)sc12 (stereo partly drawn) [Example 280, (R)-4-Hydroxy-7-(1-hydroxy-2-(10-(4-(2-isopropylthiazole-4-carbonyl)-1-oxa-4,9-diazaspiro[5.5]undecan-9-yl)decan-2-ylamino)ethyl)benzo[d]thiazol-2(3H)-one formate]
31.6 | 0.8 | 1.58 | CC(C)c1nc(C(=O)N2CCOC3(CCN(CCCSCCCCNC[C@H](O)c4ccc(O)c5[nH]c(=O)sc45)CC3)C2)cs1 [Example 281, (R)-4-Hydroxy-7-(1-hydroxy-2-(4-(3-(4-(2-isopropylthiazole-4-carbonyl)-1-oxa-4,9-diazaspiro[5.5]undecan-9-yl)propylthio)butylamino)ethyl)benzo[d]thiazol-2(3H)-one formate]
50.1 | 1 | 20 | CC(C)c1nc(C(=O)N2CCOC3(CCN(CCC[S+]([O-])CCCCNC[C@H](O)c4ccc(O)c5[nH]c(=O)sc45)CC3)C2)cs1 (stereo partly drawn) [Example 282, 4-Hydroxy-7-((1R)-1-hydroxy-2-(4-(3-(4-(2-isopropylthiazole-4-carbonyl)-1-oxa-4,9-diazaspiro[5.5]undecan-9-yl)propylsulfinyl)butylamino)ethyl)benzo[d]thiazol-2(3H)-one formate]
79.4 | 1.1 | 1.26 | CC(CCCCCCCN1CCC2(CC1)CN(C(=O)c1csc(C(C)C)n1)CCO2)CNC[C@H](O)c1ccc(O)c2[nH]c(=O)sc12 (stereo partly drawn) [Example 283, 4-Hydroxy-7-((1R)-1-hydroxy-2-(9-(4-(2-isopropylthiazole-4-carbonyl)-1-oxa-4,9-diazaspiro[5.5]undecan-9-yl)-2-methylnonylamino)ethyl)benzo[d]thiazol-2(3H)-one formate]
12.6 | 0.9 | 2 | CC(C)c1cc(C(=O)N2CCOC3(CCN(CCCCCCCNC[C@H](O)c4ccc(O)c5[nH]c(=O)sc45)CC3)C2)cs1 [Example 284, (R)-4-Hydroxy-7-(1-hydroxy-2-(7-(4-(5-isopropylthiophene-3-carbonyl)-1-oxa-4,9-diazaspiro[5.5]undecan-9-yl)heptylamino)ethyl)benzo[d]thiazol-2(3H)-one formate]
15.8 | 1 | 3.98 | CC(C)c1nc(C(=O)N2CCOC3(CCN(CCCCCC(C)(C)CCCNC[C@H](O)c4ccc(O)c5[nH]c(=O)sc45)CC3)C2)cs1 [Example 285, (R)-4-Hydroxy-7-(1-hydroxy-2-(9-(4-(2-isopropylthiazole-4-carbonyl)-1-oxa-4,9-diazaspiro[5.5]undecan-9-yl)-4,4-dimethylnonylamino)ethyl)benzo[d]thiazol-2(3H)-one formate]

Reference: patent US8148373B2, “Compounds” (AstraZeneca AB, priority 2008, dated 2012)
